Measured values published in patent US5869081A, “Progesterone vaginal ring for treatment of infertility” (priority 1996, dated 1999).

Experiments:
[1] = system: endometrium; test: histology / dating of endometrial biopsies (Example I); assay type: in vivo, human
Experimental: Endometrial biopsies were performed with an endometrial suction curette (Z-Sampler, California) on day +3 in six patients. Three patients using the 10 mg vaginal ring had endometrial biopsies repeated on day +7. […] Steril. 1:3-25 was used for assessing the day of the menstrual cycle. Endometrial tissue was processed routinely to obtain hematoxylin and eosin stained sections. These were coded and examined by the same pathologist, who was blinded for the hormone replacement therapy of each patient.

[2] = oral administration; rapid clearance by the liver; cited from earlier work
[3] = system: rat embryos at the two cell stage; conditions: cultured in vitro in the presence vs absence of hormone; cited from earlier work
[4] = system: normogonadal women undergoing IVF-ET; test: clinical pregnancy rate in IVF-ET (Example IV); assay type: in vivo, human; conditions: daily i.m. injection of 50 mg, 10/26
Experimental: Forty-nine normogonadal women undergoing IVF-ET were randomly assigned to receive a progesterone containing vaginal ring having an in vitro release rate of 10 mg per day (n=23) or a daily intramuscular (i.m.) injection of 50 mg progesterone (n=26). In order to induce multiple follicle growth, subjects received a sequential treatment with a gonadotropin releasing hormone (GnRH) agonist, human menopausal gonadotropin (hMG) and human […] gonadotropin (hCG). Oocytes were aspirated thirty-six hours after administering hCG, and treatment with progesterone, either i.m. or by vaginal ring, began at this time. Progesterone treatment continued for a maximum of seven weeks.

[5] = system: functionally agonadal women; test: clinical pregnancy and nidation rates in an oocyte donation cycle (Example III); assay type: in vivo, human
Experimental: Seventeen functionally agonadal women used a progesterone containing vaginal ring having an in vitro release rate of 10 mg per day as the only source of progesterone during an oocyte donation cycle. When pregnancy was documented on day 12 after embryo transfer, the 10 mg ring was replaced by a vaginal ring having an in vitro release rate of 15 mg, which was left in place until the twelfth week of pregnancy. In the same period of time eighteen other women received daily i.m. injections of 100 mg progesterone. The decision to use one or the other route of administration was not randomized.

[6] = human, in vivo

CC(=O)[C@H]1CC[C@H]2[C@@H]3CCC4=CC(=O)CC[C@]4(C)[C@H]3CC[C@]12C [progesterone]
circulatory progesterone level with adequate biological effect on the endometrium ([1]; intravaginal delivery): 12-15 nmol/L | advanced endometrial pattern ([1]; women supplemented with intramuscular progesterone): did not exhibit this advanced pattern | bioavailability in the circulation [2]: low bioavailability | development to the blastocyst stage [3]: better development to the blastocyst stage | clinical pregnancy rate [4]: 38.4% | clinical pregnancy rate ([5]; daily i.m. injections of 100 mg, eighteen women): 38.9% | nidation rate (total number of gestational sacs/total number of embryos transferred) ([5]; i.m. progesterone 100 mg daily, 9/66): 13.6% | systemic side effects [6]: no systemic side effects
